Measurements from patent US9265253B2, “Use of macrocyclic picolinamides as fungicides” (DOW AGROSCIENCES LLC, priority 2013, dated 2016).
Like-named read-outs stand apart in the source and are kept apart here.

What was measured:
[1] = test system: Mycosphaerella graminicola; Anamorph: Septoria tritici; assay: Leaf Blotch of Wheat (SEPTTR) disease control; type: in vivo; conditions: Zymoseptoria tritici; for pest or weed control at 100 ppm: rate 100 ppm; for pest or weed control at 121.5 g/ha: rate 121.5 g/H
In short: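 Preventive or curative tests: first-leaf Yuma wheat, sprayed to run-off, inoculated with S. tritici, dew chamber at 100% humidity, then greenhouse at 20° C. Severity on the first leaf is scored on a 0–100% scale and expressed as % control against untreated plants.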

[2] = test system: Puccinia triticina; Synonym: Puccinia recondite f. Sp. Tritici; assay: Wheat Brown Rust (PUCCRT) disease control; type: in vivo; conditions: Puccinia triticina, topical; for pest or weed control at 100 ppm: rate 100 ppm; for pest or weed control at 121.5 g/ha: rate 121.5 g/H
In short: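 Brown rust on first-leaf Yuma wheat: spore inoculation before or after spray application (acetone/Triton X-100 solution, or EC with Trycol in track spray), overnight 100% RH at 22 °C, disease developed at 24 °C. Severity scored 0–100% and converted to percent control against untreated.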

[3] = test system: Phakopsora pachyrhizi; assay: Asian Soybean Rust (PHAKPA) disease control; type: in vivo; conditions: Phakopsora pachyrhizi, topical
Protocol: Technical grades of materials were dissolved in acetone, which were then mixed with nine volumes of water containing 0.011% Tween 20. The fungicide solutions were applied onto soybean seedlings using an automated booth sprayer to run-off. All sprayed plants were allowed to air dry prior to further handling.
Soybean plants (variety Williams 82) were grown in soil-less Metro mix, with one plant per pot. Two weeks old seedlings were used for testing. Plants were inoculated either 3 days prior to or 1 day after fungicide treatments. Plants were incubated for 24 h in a dark dew room at 22° C. and 100% RH then transferred to a growth room at 23° C. for disease to develop. Disease severity was assessed on the sprayed leaves.

[4] = 24 h, 1 Day Protectant, read-out: SEPTTR 1 DP disease control
[5] = 72 h, 3 Day Curative, read-out: SEPTTR 3 DC disease control
[6] = 24 h, 1 Day Protectant, read-out: PUCCRT 1 DP disease control
[7] = 72 h, 3 Day Curative, read-out: PUCCRT 3 DC disease control
[8] = 24 h, 1 Day Protectant, read-out: Disease Control PHAKPA 1DP
[9] = 72 h, 3 Day Curative, read-out: Disease Control PHAKPA 3DC

Structure (SMILES) | melting point | pest or weed control at 100 ppm [1, 4] | pest or weed control at 121.5 g/ha [1, 4] | pest or weed control at 100 ppm [1, 5] | pest or weed control at 121.5 g/ha [1, 5] | pest or weed control at 100 ppm [2, 6] | pest or weed control at 121.5 g/ha [2, 6] | pest or weed control at 100 ppm [2, 7] | pest or weed control at 121.5 g/ha [2, 7] | pest or weed control at 25 ppm [3, 8] | pest or weed control at 25 ppm [3, 9]
CCCO[C@@H]1[C@@H](Cc2ccc(F)cc2)CCC[C@H](N)C(=O)O[C@H]1C.Cl | 215 to 217 °C | – | – | – | – | – | – | – | – | – | –
C[C@@H]1OC(=O)[C@@H](N)CCC[C@H](Cc2ccc(F)cc2F)[C@H]1OCCCc1ccccc1.Cl | 190 to 195 °C (dec.) | – | – | – | – | – | – | – | – | – | –
Cc1ccc(C[C@H]2CCC[C@H](N)C(=O)O[C@@H](C)[C@@H]2OCC2CC2)cc1.Cl | 210 °C (dec.) | – | – | – | – | – | – | – | – | – | –
COc1ccnc(C(=O)N[C@H]2CCC[C@H](Cc3ccc(F)cc3F)[C@@H](OCc3ccccc3)[C@H](C)OC2=O)c1O [Compound F52] | 68 to 72 °C | 80 to 100% | – | 80 to 100% | – | 80 to 100% | – | 80 to 100% | – | – | –
Cc1ccc(C[C@H]2CCC[C@H](N(C(=O)OC(C)(C)C)C(=O)OC(C)(C)C)C(=O)O[C@@H](C)[C@@H]2OCc2ccccc2)cc1 [Compound F230, tert-butyl N-[(3S,7R,8R,9S)-8-benzyloxy-9-methyl-2-oxo-7-(p-tolylmethyl)oxonan-3-yl]-N-tert-butoxycarbonyl-carbamate] | 164 to 166 °C | – | – | – | – | – | – | – | – | – | –
CC(C)CO[C@@H]1[C@@H](Cc2ccc(F)cc2F)CCC[C@H](N)C(=O)O[C@H]1C.Cl | 67 to 73 °C | – | – | – | – | – | – | – | – | – | –
COc1ccnc(C(=O)N[C@H]2CCC[C@H](Cc3ccc(F)cc3F)[C@@H](OCC(C)C)[C@H](C)OC2=O)c1O [Compound F59] | 69 to 72 °C | 80 to 100% | 80 to 100% | 80 to 100% | 0 to 80% | 80 to 100% | 80 to 100% | 80 to 100% | – | – | –
COc1ccnc(C(=O)N[C@H]2CCC[C@H](Cc3ccc(C)cc3)[C@@H](OCC(C)C)[C@H](C)OC2=O)c1O [Compound F41] | 129 to 131 °C | 80 to 100% | – | 80 to 100% | – | 80 to 100% | – | 0 to 80% | – | – | –
COc1ccnc(C(=O)N[C@H]2CCC[C@H](C)[C@@H](Oc3ccccc3)[C@H](C)OC2=O)c1OC(C)=O [Compound F76] | – | – | 80 to 100% | – | 80 to 100% | – | 80 to 100% | – | 80 to 100% | 80 to 100% | 80 to 100%
Cc1ccc(C[C@H]2CCC[C@H](N)C(=O)O[C@@H](C)[C@@H]2Oc2ccccc2)cc1.Cl | 200 to 210 °C (dec.) | – | – | – | – | – | – | – | – | – | –
COc1ccnc(C(=O)N[C@H]2CCC[C@H](Cc3ccc(F)cc3F)[C@@H](OC(=O)c3ccco3)[C@H](C)OC2=O)c1O [Compound F60] | 93 to 97 °C | 80 to 100% | 80 to 100% | 80 to 100% | – | 80 to 100% | 80 to 100% | 80 to 100% | – | – | –
CCOCC(=O)OCOc1c(OC)ccnc1C(=O)N[C@H]1CCC[C@H](CC)[C@@H](Oc2ccccc2)[C@H](C)OC1=O [Compound F189] | – | 80 to 100% | 80 to 100% | 80 to 100% | 80 to 100% | 80 to 100% | 80 to 100% | 80 to 100% | 80 to 100% | 80 to 100% | 80 to 100%
C=CCO[C@@H]1[C@@H](Cc2ccc(F)cc2)CCC[C@H](NC(=O)c2nccc(OC)c2OCOC(=O)COCC)C(=O)O[C@H]1C [Compound F166] | – | 80 to 100% | 80 to 100% | 80 to 100% | 80 to 100% | 80 to 100% | 80 to 100% | 80 to 100% | 80 to 100% | 80 to 100% | 0 to 80%
COc1ccnc(C(=O)N[C@H]2CCC[C@H](CCC(C)C)[C@@H](OCCCC(F)(F)F)[C@H](C)OC2=O)c1OCOC(C)=O [Compound F93] | – | 80 to 100% | 80 to 100% | 80 to 100% | 80 to 100% | 80 to 100% | 80 to 100% | 80 to 100% | 0 to 80% | 80 to 100% | 0 to 80%
C[C@@H]1OC(=O)[C@@H](N)CCC[C@H](Cc2ccc(F)cc2F)[C@H]1OCc1ccccc1.Cl | 233 to 237 °C | – | – | – | – | – | – | – | – | – | –
COc1ccnc(C(=O)N[C@H]2CCC[C@H](CC3CCCC3)[C@@H](OC(=O)C(C)C)[C@H](C)OC2=O)c1OCOC(C)=O [Compound F121] | – | 80 to 100% | 80 to 100% | 80 to 100% | 80 to 100% | 80 to 100% | 80 to 100% | 80 to 100% | 80 to 100% | 80 to 100% | 0 to 80%

The next lines start with results.

melting point | Structure (SMILES) | pest or weed control at 100 ppm [1, 4] | pest or weed control at 121.5 g/ha [1, 4] | pest or weed control at 100 ppm [1, 5] | pest or weed control at 121.5 g/ha [1, 5] | pest or weed control at 100 ppm [2, 6] | pest or weed control at 121.5 g/ha [2, 6] | pest or weed control at 100 ppm [2, 7] | pest or weed control at 121.5 g/ha [2, 7] | pest or weed control at 25 ppm [3, 8] | pest or weed control at 25 ppm [3, 9]
144 to 145 °C | C[C@@H]1OC(=O)[C@@H](NC(=O)OC(C)(C)C)CCC[C@H](C)[C@H]1Oc1ccccc1 [Compound F224] | – | – | – | – | – | – | – | – | – | –
40 to 45 °C | COc1ccnc(C(=O)N[C@H]2CCC[C@H](Cc3ccc(F)cc3F)[C@@H](OCCCc3ccccc3)[C@H](C)OC2=O)c1OCOC(C)=O [Compound F141] | 80 to 100% | 80 to 100% | 80 to 100% | 0 to 80% | 80 to 100% | 80 to 100% | 0 to 80% | – | – | –
45 to 48 °C | COCN(C(=O)OC(C)(C)C)[C@H]1CCC[C@H](Cc2ccc(F)cc2F)[C@@H](OC(=O)c2ccco2)[C@H](C)OC1=O [Compound F260] | – | – | – | – | – | – | – | – | – | –
86 to 89 °C | Cc1ccc(C[C@H]2CCC[C@H](NC(=O)OC(C)(C)C)C(=O)O[C@@H](C)[C@@H]2OCC2CC2)cc1 [Compound F236] | – | – | – | – | – | – | – | – | – | –
50 to 55 °C | CCOCC(=O)OCOc1c(OC)ccnc1C(=O)N[C@H]1CCC[C@H](Cc2ccc(C)cc2)[C@@H](OCC2CC2)[C@H](C)OC1=O [Compound F180] | 80 to 100% | 80 to 100% | 80 to 100% | 80 to 100% | 80 to 100% | 80 to 100% | 80 to 100% | 0 to 80% | – | –
110 to 114 °C | Cc1ccc(C[C@H]2CCC[C@H](N(C(=O)OC(C)(C)C)C(=O)OC(C)(C)C)C(=O)O[C@@H](C)[C@@H]2OCC(C)C)cc1 [Compound F232] | – | – | – | – | – | – | – | – | – | –
108 to 110 °C | Cc1ccc(C[C@H]2CCC[C@H](NC(=O)OC(C)(C)C)C(=O)O[C@@H](C)[C@@H]2OCc2ccccc2)cc1 [Compound F229] | – | – | – | – | – | – | – | – | – | –
71 to 75 °C | COc1ccnc(C(=O)N[C@H]2CCC[C@H](Cc3ccc(C)cc3)[C@@H](Oc3ccccc3)[C@H](C)OC2=O)c1OCOC(C)=O [Compound F134] | 80 to 100% | – | 80 to 100% | – | 80 to 100% | – | 80 to 100% | – | – | –
96 to 100 °C | COc1ccnc(C(=O)N[C@H]2CCC[C@H](Cc3ccc(C)cc3)[C@@H](Oc3ccccc3)[C@H](C)OC2=O)c1OC(C)=O [Compound F79, 4-methoxy-2-(((3S,7R,8R,9S)-9-methyl-7-(4-methylbenzyl)-2-oxo-8-phenoxyoxonan-3-yl)carbamoyl)pyridin-3-yl acetate] | 80 to 100% | – | 80 to 100% | – | 80 to 100% | – | 80 to 100% | – | – | –
87 to 89 °C | COCN(C(=O)OC(C)(C)C)[C@H]1CCC[C@H](CCC(C)C)[C@@H](OCCCC(F)(F)F)[C@H](C)OC1=O [Compound F203] | – | – | – | – | – | – | – | – | – | –
108 to 115 °C | COCN(C(=O)OC(C)(C)C)[C@H]1CCC[C@H](Cc2ccc(F)cc2F)[C@@H](OCc2ccccc2)[C@H](C)OC1=O [Compound F254] | – | – | – | – | – | – | – | – | – | –
